Columns and labels:
smooth muscle cells = experiment: Inhibition of proliferation of smooth muscle cells (3H-thymidine incorporation); assay type: cell-based; conditions: 10^-6 M, smooth muscle cells from aortas of rats or pigs
Description: Smooth muscle cells obtained from the aortas of rats or pigs by the media explantate technique [R. Ross, J. Cell. Biol. 50, 172, 1971] are used to determine the antiproliferative action of the compounds.
The cells are sown in suitable culture dishes, as a rule 24-hole plates, and cultured for 2-3 days in medium 199 with 7.5% of FCS and 7.5% of NCS, 2 mM L-glutamine and 15 mM HEPES, pH 7.4, in 5% CO2 at 37° C. The cells are then synchronised for 2-3 days by withdrawal of the serum, and subsequently stimulated into growth with AII, serum or other factors. Test compounds are added at the same time. […]

angiotensin II receptor = target: T1, angiotensin II receptor (Bos taurus, UniProt P25104); experiment: Interaction with the angiotensin II receptor on membrane fractions of the adrenal cortex; assay type: binding, cattle; conditions: bovine adrenal cortex membranes; 3H-angiotensin II (3-5 nM); 60 minutes at room temperature
T1 construct: partly purified membrane fractions of bovine AC with radioactive angiotensin II; from tissue; host or cells: bovine adrenal cortex, partly purified membrane fractions
T1 sequence (P25104 1-359): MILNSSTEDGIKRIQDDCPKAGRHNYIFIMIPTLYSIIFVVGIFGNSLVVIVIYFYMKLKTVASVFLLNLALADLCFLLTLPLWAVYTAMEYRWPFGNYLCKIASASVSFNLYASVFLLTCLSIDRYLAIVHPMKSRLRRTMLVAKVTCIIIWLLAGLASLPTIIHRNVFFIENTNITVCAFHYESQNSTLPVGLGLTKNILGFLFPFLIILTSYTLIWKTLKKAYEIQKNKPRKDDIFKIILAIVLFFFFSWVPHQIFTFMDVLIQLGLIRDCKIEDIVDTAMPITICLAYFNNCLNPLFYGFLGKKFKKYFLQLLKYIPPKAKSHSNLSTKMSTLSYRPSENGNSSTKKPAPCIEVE
Description: Adrenal cortices from cattle (AC), which are freshly removed and carefully freed from medulla of the capsule, are comminuted to a coarse membrane homogenate in sucrose solution (0.32M) with the aid of an Ultra-Turrax (Janke & Kunkel, Staufen i.B.), and the homogenate is partly purified to membrane fractions in two centrifugation steps.
The investigations on receptor bonding are carried out on partly purified membrane fractions of bovine AC with radioactive angiotensin II in an assay volume of 0.25 ml, which specifically contains the partly purified membranes (50-80 μg), 3H-angiotensin II (3-5 nM), test buffer solution (50 mM Tris, pH 7.2), 5 mM MgCl2 and the substances to be investigated. After an incubation time of 60 minutes at room temperature, the non-bonded radioactivity of the samples is separated off by means of a moistened glass fibre filter (Whatman GF/C) and, after the protein has been washed with ice-cold buffer solution (50 mM Tris/HCl, pH 7.4, 5% PEG 6000), the bonded radioactivity is measured by spectrophotometry in a scintillation cocktail. The raw data were analysed for Ki and IC50 values by computer programs (Ki : IC50 values corrected for the radioactivity used; IC50 values: concentration at which the substance under investigation causes 50% inhibition of the specific bonding of the radio ligand).

[1] = test system: angiotensin II-induced contraction of the isolated rabbit aorta; experiment: Inhibition of angiotensin II-induced vascular contraction on isolated aortic rings of the rabbit in vitro; assay type: cell-based; conditions: Oryctolagus cuniculus, agonist angiotensin II, effect at 3rd = submaximal agonist concentration, read-out: IC50 against contractions induced by: AII
Description: Rabbits of both sexes are stunned by a blow to the neck and exsanguinated, or in some cases anaesthetised with Nembutal (about 60-80 mg/kg i.v.) and sacrificed by opening the thorax. The thoracic aorta is removed, freed from attached connective tissue and divided into ring segments 1.5 mm wide, and the segments are introduced individually, under an initial load of about 3.5 g, in 10 ml organ baths containing carbogen-gassed Krebs-Henseleit nutrient solution thermostatically controlled at 37° C. and having the following composition: 119 mmol/l of NaCl; 2.5 mmol/l of CaCl2 ×2H2 O; 1.2 mmol/l of KH2 PO4; 10 mmol/l of glucose; 4.8 mmol/l of KCl; 1.4 mmol/l of MgSO4 ×7H2 O and 25 mmol/l of NaHCO3.
The contractions are recorded isometrically by Statham UC2 cells via bridged amplifiers (ifd Mulheim or DSM Aalen) and are digitised and evaluated by means of an A/D converter (System 570, Keithley Munich). The agonist dose/effect curves (DEC) are plotted hourly. With every DEC, 3 or 4 individual concentrations are applied to the baths at intervals of 4 minutes. The end of the DEC and subsequent wash-out cycles (16 times for in each case about 5 seconds/minute with the above nutrient solution) is followed by a 28-minute rest or incubation phase, during which the contractions as a rule reach the starting value again.
The level of the third DEC in the normal case is used as the reference parameter for evaluation of the test substance which is to be investigated in subsequent passes and is applied to the baths for the following DECs at the start of the incubation time at a dosage which increases each time. Each aortic ring is stimulated over the whole day with always the same agonist.
(§1) ______________________________________
Agonists and their standard concentrations (Application
volume per individual dose = 100 μl):
as §1
For calculation of the IC50 (concentration at which the substance under investigation causes 50% inhibition), the particular effect at the 3rd=submaximal agonist concentration is taken as the basis.

[2] = test system: angiotensin II-infused rats; experiment: Blood pressure measurements on angiotensin II-infused rats; assay type: in vivo, Male Wistar rats; conditions: angiotensin II-infused rats (0.3 μg/kg/minute), anaesthetised; dose 0.1 mg/kg p.o.
Description: Male Wistar rats (Moellegaard, Copenhagen, Denmark) with a body weight of 300-350 g are anaesthetised with thiopental (100 mg/kg i.p.). After tracheotomy, a catheter for blood pressure measurement is inserted into the femoral artery and a catheter for angiotensin II infusion and a catheter for administration of the substance are inserted into the femoral veins. After administration of the ganglion blocker pentolinium (5 mg/kg i.v.), the angiotensin II infusion (0.3 μg/kg/minute) is started. As soon as the blood pressure values have reached a stable plateau, the test substances are administered either intravenously, or orally as a suspension or solution in 0.5% of tylose. The changes in blood pressure under the influence of the substance are shown as the mean values ±SEM in the table.

## CCCCc1nc2cccnc2n1Cc1ccc(S(=O)(=O)N2CCC[C@H]2C(=O)O)cc1Cl [Example 5]
Smooth muscle cells
  inhibition at 1 µM: 70%
Angiotensin II receptor
  Ki: 550 nM
[1]
  IC50: 40 nM

## COC(=O)[C@@H]1CCCN1S(=O)(=O)c1ccc(Cn2c(C3CC3)nc3c(C)cc(C)nc32)c(Cl)c1 [Example 31]
[1]
  IC50: 4 nM
[2]
  ΔP (change in blood pressure): -62 mm Hg

## CCCCc1nc2cccnc2n1Cc1ccc(S(=O)(=O)N2CCCCC2C(=O)O)cc1Cl (racemic) [Example 2, rac-4-[{2-Butyl-imidazo[4,5-b]pyridin}-3-yl]methyl-3-chlorobenzenesulphonyl-N-(2-carboxy)piperidinide]
Smooth muscle cells
  inhibition at 1 µM: 40%
Angiotensin II receptor
  Ki: 1000 nM
[1]
  IC50: 326 nM

## CCc1nc2c(C)cc(C)nc2n1Cc1ccc(S(=O)(=O)N2CCC[C@H]2C(=O)O)cc1Cl [Example 41]
[1]
  IC50: 3 nM

## COC(=O)[C@@H]1CCCN1S(=O)(=O)c1ccc(Cn2c(C3CC3)nc3c(C)ccnc32)c(Cl)c1 [Example 19]
[1]
  IC50: 6 nM

## CCc1nc2c(C)cc(C)nc2n1Cc1ccc(S(=O)(=O)N2CCC[C@H]2C(=O)OC)cc1Cl [Example 20, S-4-[[2-Ethyl-imidazo[4,5-b]5,7-dimethyl-pyridin]-3-yl]methyl-3-chloro-benzenesulphonyl-N-(2-methoxy-carbonyl)pyrrolidinide]
[1]
  IC50: 6 nM
[2]
  ΔP (change in blood pressure): -48 mm Hg

## Cc1cc(C)c2nc(C3CC3)n(Cc3ccc(S(=O)(=O)N4CCC[C@H]4C(=O)O)cc3Cl)c2n1 [Example 39]
[1]
  IC50: 3 nM
[2]
  ΔP (change in blood pressure): -32 mm Hg
